# Results published in patent US9309248B2, “Azaindolines” (Hoffmann-La Roche Inc., priority 2012, dated 2016).
# Assays:
# [1] = target: T1, BIR2 domain of XIAP (Homo sapiens, UniProt P98170, C202A/C213G); assay: TR-FRET assay for BIR2 (inhibition of binding of XIAP BIR2 domain to SMAC-derived Peptide A); settings: 6x Histidine-tagged BIR2 domain (amino acids 124-240 of XIAP) 10 nM, Peptide A 20 nM
# T1 construct: 6× Histidine-tagged BIR2 domain, corresponding to amino acids 124-240 of XIAP
# Method in brief: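 Inhibition of binding of the XIAP BIR2 domain (C202A/C213G) to biotinylated SMAC-derived Peptide A was measured. TR-FRET signal was read after 1 h at room temperature.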
# [2] = target: T2, BIR3 domain of XIAP (Homo sapiens, UniProt P98170); assay: TR-FRET assay for BIR3 (inhibition of binding of XIAP BIR3 domain to SMAC-derived Peptide A); settings: 6x Histidine-tagged BIR3 domain (amino acids 241-356 of XIAP) 10 nM, Peptide A 20 nM
# T2 construct: BIR3 domain, corresponding to amino acids 241-356 of XIAP
# T2 sequence (P98170 with tags, fused parts or gaps): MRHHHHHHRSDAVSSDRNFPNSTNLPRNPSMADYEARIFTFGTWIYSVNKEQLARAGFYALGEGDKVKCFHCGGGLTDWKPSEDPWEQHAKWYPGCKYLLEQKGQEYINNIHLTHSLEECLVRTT
# Method in brief: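 His6-tagged XIAP BIR3 (aa 241-356, 10 nM) was mixed with 20 nM biotinylated SMAC-derived peptide in 50 mM Tris-Cl pH 7.5, 100 mM NaCl, 1 mM DTT, 0.1 mg/mL BSA and incubated 45 min at 37 °C. Eu-streptavidin (1.5 nM) and APC anti-His (15 nM) were added, with TR-FRET read 1 h later at RT. IC50 came from % inhibition over 10 serial concentrations.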
# T1 sequence (P98170 with tags, fused parts or gaps C202A/C213G): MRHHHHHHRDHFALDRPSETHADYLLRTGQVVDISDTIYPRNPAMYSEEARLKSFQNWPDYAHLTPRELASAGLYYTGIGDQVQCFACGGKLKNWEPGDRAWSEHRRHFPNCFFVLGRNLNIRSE
Compound,IC50 [1],IC50 [2]
"CN[C@@H](C)C(=O)N[C@H](C(=O)N1c2ncccc2C[C@H]1C(=O)Nc1ccccc1Oc1ccccc1)C(C)C [Example 30, (S)-1-[(S)-3-Methyl-2-((S)-2-methylamino-propionylamino)-butyryl]-2,3-dihydro-1H-pyrrolo[2,3-b]pyridine-2-carboxylic acid (2-phenoxy-phenyl)-amide]",158 nM,46800 nM
"CN[C@@H](C)C(=O)N[C@H](C(=O)N1c2ncccc2C[C@H]1C(=O)Nc1ccccc1OC)C(C)C [Example 10, (S)-1-[(S)-3-Methyl-2-((S)-2-methylamino-propionylamino)-butyryl]-2,3-dihydro-1H-pyrrolo[2,3-b]pyridine-2-carboxylic acid (2-methoxy-phenyl)-amide]",84.1 nM,25900 nM
"CN[C@@H](C)C(=O)N[C@H](C(=O)N1c2ncccc2C[C@H]1C(=O)Nc1c(C)cccc1F)C1CCOCC1 [Example 99, (S)-1-[(S)-2-((S)-2-Methylamino-propionylamino)-2-(tetrahydro-pyran-4-yl)-acetyl]-2,3-dihydro-1H-pyrrolo[2,3-b]pyridine-2-carboxylic acid (2-fluoro-6-methyl-phenyl)-amide]",11.6 nM,> 54800 nM
"CN[C@@H](C)C(=O)N[C@H](C(=O)N1c2ncccc2C[C@H]1C(=O)Nc1c(F)cccc1C(F)(F)F)C(C)C [Example 73, (S)—N-(2-fluoro-6-(trifluoromethyl)phenyl)-1-((S)-3-methyl-2-((S)-2-(methylamino)propanamido)butanoyl)-2,3-dihydro-1H-pyrrolo[2,3-b]pyridine-2-carboxamide]",69.1 nM,> 54800 nM
"CN[C@@H](C)C(=O)N[C@H](C(=O)N1c2ncccc2C[C@H]1C(=O)NCCS(C)(=O)=O)C(C)C [Example 51, (S)-1-[(S)-3-Methyl-2-((S)-2-methylamino-propionylamino)-butyryl]-2,3-dihydro-1H-pyrrolo[2,3-b]pyridine-2-carboxylic acid (2-methanesulfonyl-ethyl)-amide]",828 nM,> 54800 nM
"CCN[C@@H](C)C(=O)N[C@H](C(=O)N1c2ncccc2C[C@H]1C(=O)Nc1ccccc1)C(C)C [Example 87, (S)-1-[(S)-2-((S)-2-Ethylamino-propionylamino)-3-methyl-butyryl]-2,3-dihydro-1H-pyrrolo[2,3-b]pyridine-2-carboxylic acid phenylamide]",234 nM,> 54800 nM
"CN[C@@H](C)C(=O)N[C@H](C(=O)N1c2ncccc2C[C@H]1C(=O)Nc1ccccc1C(=O)c1ccccc1)C(C)C [Example 26, (S)-1-[(S)-3-Methyl-2-((S)-2-methylamino-propionylamino)-butyryl]-2,3-dihydro-1H-pyrrolo[2,3-b]pyridine-2-carboxylic acid (2-benzoyl-phenyl)-amide]",61 nM,52300 nM
"CCNC(=O)C1Cc2cccnc2N1C(=O)[C@@H](NC(=O)[C@H](C)NC)C(C)C (mixture of isomers) [Example 1, (R,S)-1-[(S)-3-Methyl-2-((S)-2-methylamino-propionylamino)-butyryl]-2,3-dihydro-1H-pyrrolo[2,3-b]pyridine-2-carboxylic acid ethylamide]",1040 nM,> 54800 nM
"CN[C@@H](C)C(=O)N[C@H](C(=O)N1c2ncccc2C[C@H]1C(=O)Nc1ccc(C#N)cc1F)C(C)C [Example 58, (S)-1-[(S)-3-Methyl-2-((S)-2-methylamino-propionylamino)-butyryl]-2,3-dihydro-1H-pyrrolo[2,3-b]pyridine-2-carboxylic acid (4-cyano-2-fluoro-phenyl)-amide]",140 nM,> 54800 nM
"CCNC(=O)C1Cc2cccnc2N1C(=O)[C@@H](NC(=O)[C@H](CC)NC)[C@@H](C)CC (stereo partly drawn) [Example 7, (R,S)-1-[(2S,3S)-3-Methyl-2-((S)-2-methylamino-butyrylamino)-pentanoyl]-2,3-dihydro-1H-pyrrolo[2,3-b]pyridine-2-carboxylic acid ethylamide]",1030 nM,> 54800 nM
"CN[C@@H](C)C(=O)N[C@H](C(=O)N1c2ncccc2C[C@@H]1C(=O)Nc1ccccc1C(=O)c1ccccc1)C(C)C [Example 27, (R)-1-[(S)-3-Methyl-2-((S)-2-methylamino-propionylamino)-butyryl]-2,3-dihydro-1H-pyrrolo[2,3-b]pyridine-2-carboxylic acid (2-benzoyl-phenyl)-amide]",2110 nM,> 54800 nM
"CN[C@@H](C)C(=O)N[C@H](C(=O)N1c2ncccc2C[C@H]1C(=O)Nc1ccc(F)cc1)C(C)C [Example 21, (S)-1-[(S)-3-Methyl-2-((S)-2-methylamino-propionylamino)-butyryl]-2,3-dihydro-1H-pyrrolo[2,3-b]pyridine-2-carboxylic acid (4-fluoro-phenyl)-amide]",275 nM,> 54800 nM
"CN[C@@H](C)C(=O)N[C@H](C(=O)N1c2ncccc2C[C@H]1C(=O)Nc1ccc(C(=O)N(C)C)cc1F)C(C)C [Example 62, (S)-1-[(S)-3-Methyl-2-((S)-2-methylamino-propionylamino)-butyryl]-2,3-dihydro-1H-pyrrolo[2,3-b]pyridine-2-carboxylic acid (4-dimethylcarbamoyl-2-fluoro-phenyl)-amide]",35.1 nM,> 54800 nM
"CN[C@@H](C)C(=O)N[C@H](C(=O)N1c2ncccc2C[C@H]1C(=O)Nc1ccc(OC)cc1F)C(C)C [Example 47, (S)-1-[(S)-3-Methyl-2-((S)-2-methylamino-propionylamino)-butyryl]-2,3-dihydro-1H-pyrrolo[2,3-b]pyridine-2-carboxylic acid (2-fluoro-4-methoxy-phenyl)-amide]",4.29 nM,> 54800 nM
"CN[C@@H](C)C(=O)N[C@H](C(=O)N1c2ncccc2C[C@H]1C(=O)NCc1ccccc1)C(C)C [Example 16, (S)-1-[(S)-3-Methyl-2-((S)-2-methylamino-propionylamino)-butyryl]-2,3-dihydro-1H-pyrrolo[2,3-b]pyridine-2-carboxylic acid benzylamide]",159 nM,3950 nM
"CCN[C@@H](C)C(=O)N[C@H](C(=O)N1c2ncccc2C[C@H]1C(=O)Nc1ccccc1)C1CCCCC1 [Example 76, (S)-1-[(S)-2-Cyclohexyl-2-((S)-2-ethylamino-propionylamino)-acetyl]-2,3-dihydro-1H-pyrrolo[2,3-b]pyridine-2-carboxylic acid phenylamide]",353 nM,> 54800 nM
"CN[C@@H](C)C(=O)N[C@H](C(=O)N1c2ncccc2C[C@H]1C(=O)Nc1ccc(C(=O)c2ccccc2)cc1)C(C)C [Example 42, (S)-1-[(S)-3-Methyl-2-((S)-2-methylamino-propionylamino)-butyryl]-2,3-dihydro-1H-pyrrolo[2,3-b]pyridine-2-carboxylic acid (4-benzoyl-phenyl)-amide]",847 nM,> 54800 nM
"CCN[C@@H](CC)C(=O)N[C@H](C(=O)N1c2ncccc2C[C@H]1C(=O)Nc1ccccc1)C(C)C [Example 88, (S)-1-[(S)-2-((S)-2-Ethylamino-butyrylamino)-3-methyl-butyryl]-2,3-dihydro-1H-pyrrolo[2,3-b]pyridine-2-carboxylic acid phenylamide]",211 nM,> 54800 nM
"CN[C@@H](C)C(=O)N[C@H](C(=O)N1c2ncccc2C[C@H]1C(=O)Nc1nc(C)cs1)C(C)C [Example 66, (S)-1-[(S)-3-Methyl-2-((S)-2-methylamino-propionylamino)-butyryl]-2,3-dihydro-1H-pyrrolo[2,3-b]pyridine-2-carboxylic acid (4-methyl-thiazol-2-yl)-amide]",496 nM,> 54800 nM
"CN[C@@H](C)C(=O)N[C@H](C(=O)N1c2ncccc2C[C@@H]1C(=O)Nc1ccccc1)C(C)C [Example 12, (R)-1-[(S)-3-Methyl-2-((S)-2-methylamino-propionylamino)-butyryl]-2,3-dihydro-1H-pyrrolo[2,3-b]pyridine-2-carboxylic acid phenylamide]",> 54800 nM,> 54800 nM
"CN[C@@H](C)C(=O)N[C@H](C(=O)N1c2ncccc2C[C@H]1C(=O)Nc1c(C)cccc1C)C(C)C [Example 33, (S)-1-[(S)-3-Methyl-2-((S)-2-methylamino-propionylamino)-butyryl]-2,3-dihydro-1H-pyrrolo[2,3-b]pyridine-2-carboxylic acid (2,6-dimethyl-phenyl)-amide]",44.9 nM,> 54800 nM
